The values below come from patent US7432376B2, “Tropane prodrugs with central nervous system activity” (Research Foundation of State University of New York, The, priority 2006, dated 2008).

SMILES strings stand for the structures. Where only a bound is given, the exact number is not on record here.

T1 sequence (P23977 whole entry): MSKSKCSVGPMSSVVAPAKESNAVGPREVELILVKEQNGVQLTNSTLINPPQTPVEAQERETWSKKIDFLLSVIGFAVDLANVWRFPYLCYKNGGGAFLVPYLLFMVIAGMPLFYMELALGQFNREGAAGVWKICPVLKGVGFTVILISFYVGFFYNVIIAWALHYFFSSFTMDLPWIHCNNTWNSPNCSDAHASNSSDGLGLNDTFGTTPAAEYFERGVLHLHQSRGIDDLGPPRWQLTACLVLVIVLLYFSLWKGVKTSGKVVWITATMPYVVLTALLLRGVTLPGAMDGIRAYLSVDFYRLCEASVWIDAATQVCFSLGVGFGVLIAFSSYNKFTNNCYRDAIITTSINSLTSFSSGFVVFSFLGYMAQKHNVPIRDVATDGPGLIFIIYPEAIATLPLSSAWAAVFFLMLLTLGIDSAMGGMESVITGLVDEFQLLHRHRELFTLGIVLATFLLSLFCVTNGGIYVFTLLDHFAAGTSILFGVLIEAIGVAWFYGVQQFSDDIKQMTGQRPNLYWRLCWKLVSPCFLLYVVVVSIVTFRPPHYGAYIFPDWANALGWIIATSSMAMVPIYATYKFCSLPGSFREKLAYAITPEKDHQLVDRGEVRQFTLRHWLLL
T2 sequence (P31652 whole entry): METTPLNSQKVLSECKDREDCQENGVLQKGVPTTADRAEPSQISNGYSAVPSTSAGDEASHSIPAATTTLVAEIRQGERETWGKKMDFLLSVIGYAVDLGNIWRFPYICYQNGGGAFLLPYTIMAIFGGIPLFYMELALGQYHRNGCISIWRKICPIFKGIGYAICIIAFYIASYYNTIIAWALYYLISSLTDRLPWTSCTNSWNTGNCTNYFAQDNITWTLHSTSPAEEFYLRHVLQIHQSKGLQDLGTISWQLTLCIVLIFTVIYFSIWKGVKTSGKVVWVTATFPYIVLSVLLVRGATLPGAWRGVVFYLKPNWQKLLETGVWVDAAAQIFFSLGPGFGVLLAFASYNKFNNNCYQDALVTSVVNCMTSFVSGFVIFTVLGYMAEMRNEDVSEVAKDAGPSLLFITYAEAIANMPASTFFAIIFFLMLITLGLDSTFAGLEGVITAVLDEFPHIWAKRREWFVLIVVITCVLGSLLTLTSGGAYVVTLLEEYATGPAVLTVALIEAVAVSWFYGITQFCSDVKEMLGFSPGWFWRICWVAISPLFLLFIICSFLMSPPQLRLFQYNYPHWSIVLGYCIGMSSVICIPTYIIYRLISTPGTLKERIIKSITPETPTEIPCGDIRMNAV

One assay addresses T1, dopamine transport sites (DAT) (Rattus norvegicus, UniProt P23977).
T1 construct: tissue Pel-Freez, Rogers, Ark; host or cells: rat striatum membranes
The assay can be described thus: Displacement of [125I]RTI-55 binding at dopamine transport sites in membranes from rat striatum. On the set-up: species or system Sprague-Dawley rat.
Conditions: not given
The procedure:
(§1) Binding of at biogenic amine transporters was determined using striatum and frontal cortex dissected from frozen Sprague-Dawley rat brains (Pel-Freez, Rogers, Ark.). […] Affinities of analogs at 5-HT transport sites were determined by displacement of [^3H]paroxetine binding in membranes from rat frontal cortex, using 50 mg (original wet weight) of membranes and 0.4 nM [^3H]paroxetine. Non-specific binding was determined in the presence of 10 μM fluoxetine. Binding of analogs at norepinephrine transport sites was determined by displacement of [^3H]nisoxetine binding in membranes from rat forebrain, using 0.7 nM [^3H]nisoxetine. Non-specific binding was determined in the presence of 1 μM desipramine.
(§2) Potencies were calculated from displacement curves using 7-10 concentrations of unlabeled analogs, as analyzed by non-linear curve fitting. […] For [^3H]paroxetine and [^3H]nisoxetine binding assays, Ki values were calculated using the Cheng-Prusoff equation.^1 All data are mean values±S.E.M. of at least three separate experiments, each of which was conducted in triplicate.
Broadly, the IC50 is the concentration at which inhibition is half-maximal. Turning to `CCC(O)C1C(c2ccc3ccccc3c2)CC2CCC1N2C` (stereo not drawn) [Compound 41b], the IC50 turned out to be 6.22 nM.
`CCC(OC(C)=O)C1C(c2ccc3ccccc3c2)CC2CCC1N2C` (stereo not drawn) [Compound 42b] showed an IC50 of 1.72 nM.
Consider `CCC(OC(C)=O)C1C(c2ccc(C)cc2)CC2CCC1N2C` (stereo not drawn) [Compound 42a], for which the IC50 was 87.9 nM.
Compound `CCC(O)C1C(c2ccc(C)cc2)CC2CCC1N2C` (stereo not drawn) [Compound 41a] came in with an IC50 of 3.69 nM.
`CCCCCCCCCCCC(=O)OC(CC)C1C(c2ccc3ccccc3c2)CC2CCC1N2C` (stereo not drawn) [Compound 43b] gave a half-maximal inhibitory concentration (IC50) of 109 nM.

Staying with this assay, now noted: rat striatum membranes, 10 pM [125I]RTI-55; mean of at least three experiments; read-out: IC50 DA.
For the compound `CCCCCCCCCCCC(=O)OC(CC)C1C(c2ccc(C)cc2)CC2CCC1N2C` (stereo not drawn) [Compound 43a], the IC50 was determined as 0.891 nM.

Another assay addresses T2, 5-HT transport sites (SERT) (Rattus norvegicus, UniProt P31652).
T2 construct: tissue Pel-Freez, Rogers, Ark; host or cells: rat frontal cortex membranes
The assay can be described thus: Displacement of [3H]paroxetine binding at 5-HT transport sites in membranes from rat frontal cortex. Further details: species or system Sprague-Dawley rat.
Conditions: not given
On the procedure:
as §1, §2
As usually defined, the Ki is a measure of affinity in units of concentration, obtained from inhibition or displacement. `CCC(O)C1C(c2ccc3ccccc3c2)CC2CCC1N2C` (stereo not drawn) [Compound 41b] registered a Ki of 588 nM.
`CCC(OC(C)=O)C1C(c2ccc3ccccc3c2)CC2CCC1N2C` (stereo not drawn) [Compound 42b] yielded a Ki of 1.06 nM.
Same read-out and setting: in the case of `CCC(OC(C)=O)C1C(c2ccc(C)cc2)CC2CCC1N2C` (stereo not drawn) [Compound 42a] it was greater than 10000 nM.
On the same count and under the same terms, in the case of `CCC(O)C1C(c2ccc(C)cc2)CC2CCC1N2C` (stereo not drawn) [Compound 41a] it was 161 nM.
`CCCCCCCCCCCC(=O)OC(CC)C1C(c2ccc3ccccc3c2)CC2CCC1N2C` (stereo not drawn) [Compound 43b] registered a Ki of 90.8 nM.

The same assay, now with this note: rat frontal cortex membranes, 0.4 nM [3H]paroxetine; Ki by Cheng-Prusoff; mean of at least three experiments; read-out: Ki SERT.
As for `CCCCCCCCCCCC(=O)OC(CC)C1C(c2ccc(C)cc2)CC2CCC1N2C` (stereo not drawn) [Compound 43a], the Ki amounted to 1.91 nM.
